Experimental data: ChEMBL document CHEMBL1127894, “The synthesis of 2,2,24- trisubstituted oxetanes as new azole antifungal agents” (1994)
Converted amounts (≈) assume the structure as drawn. The source made the active and inactive calls. The calls are words filed in the database; no cut-off is given here.

Experiments:
[1] = system: Candida albicans; experiment: Tested for inhibition of yeast to mycelial transformation against Candida albicans C-43 at concentration of <0.03 ug/mL at pH 7.0; Active; format: functional, organism-based
[2] = system: Mus musculus; experiment: Compound was tested for in vivo activity against Candida albicans C-43 in mice at dose of 10 mg/kg; Inactive; format: functional, organism-based; parameters: dose 10 mg/kg
[3] = system: Mus musculus; experiment: Compound was tested for in vivo activity against Candida albicans C-43 in mice; format: functional
[4] = system: Candida albicans; experiment: Tested for inhibition of yeast to mycelial transformation against six strains of Candida albicans at concentration of <0.03 ug/mL at pH 7.0; Active; format: functional, organism-based
[5] = system: Candida parapsilosis; experiment: Minimum inhibitory concentration against two strains of Candida parapsilosis; format: functional; conditions: Lodderomyces parapsilosis
[6] = system: Mus musculus; experiment: Compound was tested for percent survival against Candida albicans C-43 at 50 mg/kg (iv) in mice; format: functional
[7] = system: Candida albicans; experiment: Tested for inhibition of yeast to mycelial transformation against Candida stellatoidea at concentration of <0.03 ug/mL at pH 7.0; Active; format: functional, organism-based
[8] = system: Mus musculus; experiment: Geometri mean CFUs(log 10) for Candida albicans infected mice treated with 50 mg/kg of compound; format: functional
[9] = system: Mus musculus; experiment: Compound was tested for in vivo activity against 1x 10ex6 CFU of Candida albicans C-43 infected mice at dose of 10 mg/kg; Inactive; format: functional, organism-based; parameters: dose 10 mg/kg
[10] = system: Candida albicans; experiment: Tested for inhibition of yaest to mycelial transformation against Candida albicans C-43 at concentration of <0.03 ug/mL at pH 7.0; Active; format: functional, organism-based
[11] = system: Candida albicans; experiment: Tested for inhibition of yeast to mycelial transformation against Candida stellatoidea at concentration of 16->64 ug/mL at pH 7.0; Slightly active; format: functional, organism-based
[12] = system: Candida albicans; experiment: Tested for inhibition of yeast to mycelial transformation against Candida albicans C-43 at concentration of 16->64 ug/mL at pH 7.0; Slightly active; format: functional, organism-based
[13] = system: Candida albicans; experiment: Tested for inhibition of yeast to mycelial transformation against six strains of Candida albicans at concentration of 16->64 ug/mL at pH 7.0; Slightly active; format: functional, organism-based
[14] = system: Candida parapsilosis; experiment: Minimum inhibitory concentration against two strains of C. parapsilosis; Inactive; format: functional, organism-based
[15] = system: Candida albicans; experiment: In vitro inhibition of yeast to mycelial transformation against Candida stellatoidea at concentration of <0.03 ug/mL at pH 7.0; Active; format: functional, organism-based
[16] = system: Candida albicans; experiment: In vitro inhibition of yeast to mycelial transformation against six strains of Candida albicans at concentration of <0.03 ug/mL at pH 7.0; Active; format: functional, organism-based
[17] = system: Candida albicans; experiment: In vitro inhibition of yeast to mycelial transformation against Candida albicans C-43 at concentration of <0.03 ug/mL at pH 7.0; Active; format: functional, organism-based

## CC(C)N1CCN(c2ccc(OC[C@@H](O)C[C@@](O)(Cn3cncn3)c3ccc(Cl)cc3Cl)cc2)CC1
[1]
  Activity: Active
[2]
  Activity: inactive
[3]
  Activity: 4.4
[4]
  Activity: Active
[5]
  MIC: 32 µg/mL (≈ 59.9 µM)
[6]
  survival at 50 mg/kg: 100%
[7]
  Activity: Active

## CC(C)N1CCN(c2ccc(OC[C@H]3CC[C@](Cn4cncn4)(c4ccc(Cl)cc4Cl)O3)cc2)CC1
[8]
  Activity: 4.3
[1]
  Activity: Active
[4]
  Activity: Active
[5]
  MIC: 0.5 µg/mL (≈ 0.943 µM)
[6]
  survival at 50 mg/kg: 100%
[7]
  Activity: Active
[9]
  Activity: inactive

## CC(C)N1CCN(c2ccc(OC[C@H](O)C[C@@](O)(Cn3cncn3)c3ccc(Cl)cc3Cl)cc2)CC1
[2]
  Activity: inactive
[3]
  Activity: 4.2
[4]
  Activity: Active
[5]
  MIC: 32 µg/mL (≈ 59.9 µM)
[6]
  survival at 50 mg/kg: 100%
[7]
  Activity: Active
[10]
  Activity: Active

## CC(C)N1CCN(c2ccc(OC[C@H]3C[C@@](Cn4cncn4)(c4ccc(Cl)cc4Cl)O3)cc2)CC1 (relative stereo)
[9]
  Activity: inactive

## CC(C)N1CCN(c2ccc(OC[C@H]3C[C@@](Cn4cncn4)(c4ccc(Cl)cc4Cl)O3)cc2)CC1 (racemic)
[11]
  Activity: Weak activity
[12]
  Activity: Weak activity
[13]
  Activity: Weak activity
[14]
  MIC: inactive

## CC(C)N1CCN(c2ccc(OC[C@@H]3C[C@@](Cn4cncn4)(c4ccc(Cl)cc4Cl)O3)cc2)CC1 (racemic) [listing 1 of 2 here]
[5]
  MIC: 32 µg/mL (≈ 62 µM)

## CC(C)N1CCN(c2ccc(OC[C@@H]3C[C@@](Cn4cncn4)(c4ccc(Cl)cc4Cl)O3)cc2)CC1 (racemic) [listing 2 of 2 here]
[15]
  Activity: Active
[16]
  Activity: Active
[17]
  Activity: Active

## CC(C)N1CCN(c2ccc(OC[C@@H]3C[C@@](Cn4cncn4)(c4ccc(Cl)cc4Cl)O3)cc2)CC1 (relative stereo)
[9]
  Activity: inactive
